Drawing on article PMC11865577 (2024), this text covers KDapp for eight molecules.

Assay [1] deals with hsa-mir-6850 (RNA, G4) AGCCGGGGCGGGAGGGGAAGGGACGCCCGGCU
The assay can be described thus: fluorescence titration. As to conditions: 20 mM NaCl, 80 mM KCl, apparent.

The test system of assay [2] is hsa-mir-4437 (RNA, miRNA) AGCUCCACAAGGAGGGGAUGACCCUUGUGGGGCU
The assay can be described thus: fluorescence titration. To be noted: 20 mM NaCl, 80 mM KCl; 20 mM phosphate pH 7.0, 1% DMSO, 20 °C; apparent.

Assay [3] deals with hsa-mir-191 (RNA, miRNA) AGCCAGCUGUUGUCUCCAGAGCAUUCCAGCUGGCU
As to the kind of experiment: fluorescence titration. As to conditions: 20 mM NaCl, 80 mM KCl, phosphate pH 7.0, apparent.

Assay [4] concerns hsa-mir-221 (RNA, miRNA) AGCAGAUUUCUGUGUUCGUUAGGCAACAGCUGCU
The assay can be described thus: fluorescence titration. As to conditions: 20 mM NaCl, 80 mM KCl, phosphate pH 7.0, apparent.

For assay [5], the system named is hsa-mir-374a (RNA, miRNA) AGCUAAGUGUUAUAGCACUUAGCU
The assay can be described thus: fluorescence titration. As to conditions: 20 mM NaCl, 80 mM KCl, phosphate pH 7.0, apparent.

Assay [6] deals with hsa-mir-21 (RNA, miRNA) AGCGUUGACUGUUGAAUCUCAUGGCAACGCU
As to the kind of experiment: fluorescence titration. As to conditions: 20 mM NaCl, 80 mM KCl, phosphate pH 7.0, apparent.

In assay [7] the test system is hsa-mir-4520-1-mutG7A (RNA, miRNA) AGCCCAAAUCAGAAAAAGAUUUGGGCU
The assay can be described thus: fluorescence titration. As to conditions: 20 mM NaCl, 80 mM KCl; 20 mM phosphate pH 7.0, 1% DMSO, 20 °C; apparent.

In assay [8] the test system is common stem sequence with four Us in the terminal loop (RNA, hairpin) GUGUACGAAGUUUCAGCUUUUGCUGAAGCUUCGUGCAC
The assay can be described thus: fluorescence titration. To be noted: 20 mM NaCl, 80 mM KCl; 20 mM phosphate pH 7.0, 1% DMSO, 20 °C; apparent.

Assay [9] has as its system hsa-mir-4520-1-mutG2A (RNA, miRNA) AGCCCAAAUCAAAAAAGGAUUUGGGCU
The assay can be described thus: fluorescence titration. To be noted: 20 mM NaCl, 80 mM KCl; 20 mM phosphate pH 7.0, 1% DMSO, 20 °C; apparent.

The test system of assay [10] is mutG7A (biotinylated) (RNA, miRNA) AGCCCAAAUCAGAAAAAGAUUUGGGCU
The assay can be described thus: SPR, multi-cycle, 1:1 fit. To be noted: 20 mM NaCl, 80 mM KCl; 20 mM phosphate pH 7.0, 1% DMSO, 25 °C; up to 50 μM; apparent.

Assay [11] relates to hsa-mir-4520-1 loop (RNA, miRNA) AGCCCAAAUCAGAAAAGGAUUUGGGCU
The assay can be described thus: fluorescence titration. As to conditions: 20 mM NaCl, 80 mM KCl; 20 mM phosphate pH 7.0, 1% DMSO, 20 °C; apparent.

For assay [12], the system named is mutG2A (biotinylated) (RNA, miRNA) AGCCCAAAUCAAAAAAGGAUUUGGGCU
As to the kind of experiment: SPR, single-cycle kinetics. As to conditions: 20 mM NaCl, 80 mM KCl; 20 mM phosphate pH 7.0, 25 °C; apparent. Background: Surface plasmon resonance follows binding to a sensor surface in real time, without labels.

For assay [13], the system named is G4_(GGGU)6 (RNA, G4) AGCGGGUGGGUGGGUGGGUGGGUGGGUGCU
The assay can be described thus: fluorescence titration. To be noted: 20 mM NaCl, 80 mM KCl; 20 mM phosphate pH 7.0, 1% DMSO, 20 °C; apparent.

In assay [14] the test system is hsa-mir-4520-1 mutG2,7A (RNA, miRNA) AGCCCAAAUCAAAAAAAGAUUUGGGCU
The assay can be described thus: fluorescence titration. As to conditions: 20 mM NaCl, 80 mM KCl; 20 mM phosphate pH 7.0, 1% DMSO, 20 °C; apparent.

Assay [15] relates to hsa-mir-4520-1 loop (biotinylated) (RNA, miRNA) AGCCCAAAUCAGAAAAGGAUUUGGGCU
As to the kind of experiment: SPR, single-cycle kinetics. To be noted: 20 mM NaCl, 80 mM KCl; 20 mM phosphate pH 7.0, 25 °C; apparent.

For assay [16], the system named is hsa-mir-4773-1 (RNA, miRNA) AGCUCUGCUUUAUUUCAUCAAAGCAGAGCU
The assay can be described thus: fluorescence titration. As to conditions: 20 mM NaCl, 80 mM KCl; 20 mM phosphate pH 7.0, 1% DMSO, 20 °C; apparent.

Assay [17] has as its system hsa-mir-6847 (RNA, miRNA) AGCGAGCUGGAAGGAGUGGGCCUGGCUCGCU
As to the kind of experiment: fluorescence titration. As to conditions: 20 mM NaCl, 80 mM KCl; 20 mM phosphate pH 7.0, 1% DMSO, 20 °C; apparent.

The mark [18] stands for this setting: 20 mM phosphate pH 7.0, 1% DMSO, 20 °C, 0.1 μM compound.
The mark [19] stands for this setting: 1 μM compound, range 2.6-16 μM for all RNAs.

On to `C[n+]1c(C=C2C=CN(CCC[N+](C)(C)C)c3ccccc32)sc2ccccc21`, for which the KDapp in [1] (setting [18]) turned out to be 0.20 µM.

As to `C[n+]1ccc(C=C2Sc3ccccc3N2CCCCC(=O)NCCOCCOCCOCCN=[N+]=[N-])c2ccccc21`, in assay [2], the KDapp was determined as 4.4 µM.

As for `O=c1c(O)c(-c2cc(O)c(O)c(O)c2)oc2cc(O)cc(O)c12`, the KDapp in assay [3] (range 16-25 μM for target RNAs) was 25 ± 3 µM; in assay [4] (range 16-25 μM for target RNAs) it was 20 ± 2 µM; in assay [1] (phosphate pH 7.0) it was 3.3 ± 0.1 µM; in [5] (0-40 μM RNA, low-rank RNA), greater than 40 µM; in [6] (range 16-25 μM for target RNAs), 16 ± 0.5 µM.

With `[N-]=[N+]=NCCOCCOCCOCCNC(=O)Cn1cc2c(nc1=O)Nc1c(OCCN)cccc1O2`, the KDapp in assay [7] was 15 µM; in [8] it was 9 µM; in [9], 0.011 µM; in assay [1] (20 mM phosphate pH 7.0, 1% DMSO, 20 °C), 0.19 µM; in assay [10], greater than 50 µM; in assay [11], 0.024 µM. In addition, the KDapp is 0.044 ± 0.008 µM in assay [12]; 0.15 µM in [13]; 3.7 µM in [14]; 0.10 ± 0.02 µM in [15]; greater than 20 µM in assay [16]; 0.022 µM in assay [17].

Take `CN1C(=CC=Cc2cc[n+](CCC[N+](C)(C)C)c3ccccc23)Sc2ccccc21`: the KDapp in assay [1] (setting [18]) was 0.19 µM.

In the case of `N#CC(c1ccnc(OCc2ccc(CN3CCOCC3)cc2)n1)c1nc2ccccc2s1` (stereo not shown), the KDapp in assay [3] (1 μM compound) turned out to be 14 µM; in [1] (phosphate pH 7.0, 1 μM compound), 4.5 µM; in assay [6] (1 μM compound) it was 20 µM.

As to `O=c1cc(-c2ccccc2)oc2cc(O)c(O)c(O)c12`, the KDapp in assay [3] (0-40 μM RNA), in assay [4] (0-40 μM RNA) and in assay [6] (0-40 μM RNA) was greater than 40 µM each time.

Turning to `COc1ccc2c(c[n+](C)c3c4cc5c(cc4ccc23)OCO5)c1OC`, the KDapp in assay [3] (setting [19]) came out at 3.8 ± 0.5 µM; in assay [4] (setting [19]), 3.8 ± 0.3 µM; in assay [1] (phosphate pH 7.0, 1 μM compound, range 2.6-16 μM for all RNAs), 4.0 ± 0.5 µM; in [5] (setting [19]), 12 ± 1 µM; in assay [6] (setting [19]) it was 2.6 ± 0.6 µM.
